Measurements reported in ChEMBL document CHEMBL4619706, “Synthesis, biological evaluation and molecular modeling study of [1,2,4]-Triazolo[4,3-c]quinazolines: New class of EGFR-TK inhibitors” (Bioorg Med Chem, 2020).

Assays:
[1] = system: HeLa; assay: Anticancer activity against human HeLa cells assessed as inhibition of cell growth incubated for 24 hrs by MTT assay; format: functional, cell-based
[2] = system: HepG2; assay: Anticancer activity against human HepG2 cells assessed as inhibition of cell growth incubated for 24 hrs by MTT assay; format: functional, cell-based; settings: HepG2, 24 h
[3] = system: PC-3; assay: Anticancer activity against human PC3 cells assessed as inhibition of cell growth incubated for 24 hrs by MTT assay; format: functional, cell-based; settings: PC-3, 24 h
[4] = system: MCF7; assay: Anticancer activity against human MCF7 cells assessed as inhibition of cell growth incubated for 24 hrs by MTT assay; format: functional, cell-based; settings: MCF7, 24 h
[5] = system: HCT-116; assay: Anticancer activity against human HCT116 cells assessed as inhibition of cell growth incubated for 24 hrs by MTT assay; format: functional, cell-based; settings: HCT-116, 24 h
[6] = system: MCF7; assay: Induction of apoptosis in human MCF7 cells assessed as late apoptotic cells after 24 hrs by Annexin V-FITC/propidium iodide double staining based FACSCalibur flow cytometry analysis (reference value: 0.43 %); format: functional
[7] = system: MCF7; assay: Induction of apoptosis in human MCF7 cells assessed as early apoptotic cells after 24 hrs by Annexin V-FITC/propidium iodide double staining based FACSCalibur flow cytometry analysis (reference value: 1.22 %); format: functional
[8] = system: MCF7; assay: Cell cycle arrest in human MCF7 cells assessed as accumulation of cells at G0/G1 phase at IC50 after 24 hrs by propidium iodide/RNase staining based FACSCalibur flow cytometry analysis (reference value: 57.28 %); format: functional
[9] = system: MCF7; assay: Induction of apoptosis in human MCF7 cells assessed as viable cells after 24 hrs by Annexin V-FITC/propidium iodide double staining based FACSCalibur flow cytometry analysis (reference value: 97.89 %); format: functional
[10] = system: MCF7; assay: Cell cycle arrest in human MCF7 cells assessed as accumulation of cells at G2/M phase at IC50 after 24 hrs by propidium iodide/RNase staining based FACSCalibur flow cytometry analysis (reference value: 16.23 %); format: functional
[11] = biological target: Epidermal growth factor receptor (Homo sapiens, UniProt P00533); assay: Inhibition of human EGFR-TK using PTK substrate after 40 mins in presence of ATP by Kinase-Glo luminescent assay
Chain of Epidermal growth factor receptor (P00533 whole entry): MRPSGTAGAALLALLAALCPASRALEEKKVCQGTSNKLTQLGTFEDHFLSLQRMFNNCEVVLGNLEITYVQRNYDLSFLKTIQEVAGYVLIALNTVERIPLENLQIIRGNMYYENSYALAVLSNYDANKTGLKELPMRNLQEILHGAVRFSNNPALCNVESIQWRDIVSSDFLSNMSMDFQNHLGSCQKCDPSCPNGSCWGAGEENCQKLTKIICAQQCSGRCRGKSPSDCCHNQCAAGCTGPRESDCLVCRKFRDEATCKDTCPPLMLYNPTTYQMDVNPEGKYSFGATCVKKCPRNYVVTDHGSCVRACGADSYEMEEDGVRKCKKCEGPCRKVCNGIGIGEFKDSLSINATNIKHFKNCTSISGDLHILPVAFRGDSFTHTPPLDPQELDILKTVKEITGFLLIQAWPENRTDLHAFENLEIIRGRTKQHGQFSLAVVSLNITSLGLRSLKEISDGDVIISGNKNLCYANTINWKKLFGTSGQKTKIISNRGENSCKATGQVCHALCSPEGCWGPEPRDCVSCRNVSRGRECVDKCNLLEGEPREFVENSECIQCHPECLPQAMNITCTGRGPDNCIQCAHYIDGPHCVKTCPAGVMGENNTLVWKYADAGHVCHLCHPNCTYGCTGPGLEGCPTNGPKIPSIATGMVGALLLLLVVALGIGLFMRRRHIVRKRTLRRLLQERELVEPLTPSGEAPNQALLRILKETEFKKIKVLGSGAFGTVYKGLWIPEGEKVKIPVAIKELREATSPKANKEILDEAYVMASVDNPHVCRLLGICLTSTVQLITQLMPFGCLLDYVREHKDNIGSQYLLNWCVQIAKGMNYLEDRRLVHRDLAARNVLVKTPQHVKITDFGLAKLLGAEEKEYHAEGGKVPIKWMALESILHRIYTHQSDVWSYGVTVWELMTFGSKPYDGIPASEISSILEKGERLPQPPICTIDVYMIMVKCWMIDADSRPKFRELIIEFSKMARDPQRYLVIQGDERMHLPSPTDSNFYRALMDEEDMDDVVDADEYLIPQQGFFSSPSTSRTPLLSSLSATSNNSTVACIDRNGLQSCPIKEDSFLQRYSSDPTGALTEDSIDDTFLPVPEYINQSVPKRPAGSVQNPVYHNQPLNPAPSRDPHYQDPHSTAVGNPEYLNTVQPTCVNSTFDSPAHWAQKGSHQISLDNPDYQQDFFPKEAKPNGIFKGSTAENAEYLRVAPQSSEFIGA

[12] = system: MCF7; assay: Induction of apoptosis in human MCF7 cells assessed as cumulative apoptosis after 24 hrs by Annexin V-FITC/propidium iodide double staining based FACSCalibur flow cytometry analysis (reference value: 2.11 %); format: functional
[13] = system: MCF7; assay: Induction of apoptosis in human MCF7 cells assessed as necrotic cells after 24 hrs by Annexin V-FITC/propidium iodide double staining based FACSCalibur flow cytometry analysis (reference value: 0.46 %); format: functional
[14] = system: MCF7; assay: Induction of apoptosis in human MCF7 cells assessed after 24 hrs by Annexin V-FITC/propidium iodide double staining based FACSCalibur flow cytometry analysis; format: functional, cell-based
[15] = system: MCF7; assay: Cell cycle arrest in human MCF7 cells assessed as accumulation of cells at pre-G1 phase at IC50 after 24 hrs by propidium iodide/RNase staining based FACSCalibur flow cytometry analysis (reference value: 2.11 %); format: functional
[16] = system: MCF7; assay: Cell cycle arrest in human MCF7 cells assessed as accumulation of cells at S phase at IC50 after 24 hrs by propidium iodide/RNase staining based FACSCalibur flow cytometry analysis (reference value: 26.49 %); format: functional

| IC50 [1] [µM] | IC50 [2] [µM] | IC50 [3] [µM] | IC50 [4] [µM] | IC50 [5] [µM] | IC50 [11] [µM] | Compound | Activity [6] [%] | Activity [7] [%] | Activity [8] [%] | Activity [9] [%] | Activity [10] [%] | Activity [12] [%] | Activity [13] [%] | Activity [14] | Activity [15] [%] | Activity [16] [%] |
| --- | --- | --- | --- | --- | --- | --- | --- | --- | --- | --- | --- | --- | --- | --- | --- | --- |
| 9.47 | 15.3 | 10.6 | 8.58 | 13.5 | 1.8 | N#CC1=C(N)N(c2nnc3c4ccccc4nc(Sc4ccc(Br)cc4)n23)C(=O)C1 | 10.26 | 7.26 | 41.33 | 80.59 | 33.21 | 19.41 | 1.89 | Dose-dependent effect | 19.41 | 25.46 |
| 46.4 | 32.4 | 29.9 | 30.2 | 44.2 | – | O=C(Nc1nnc2c3ccccc3nc(Sc3ccc(Br)cc3)n12)c1ccccc1 | – | – | – | – | – | – | – | – | – | – |
| 16.2 | 18.2 | 16.8 | 19.8 | 20.4 | – | O=C(Nc1nnc2c3ccccc3nc(Sc3ccc(Br)cc3)n12)c1ccc(Cl)c([N+](=O)[O-])c1 | – | – | – | – | – | – | – | – | – | – |
| 10.1 | 9.8 | 17.7 | 12.3 | 8.27 | 4.28 | COc1ccc(/C=N/c2nnc3c4ccccc4nc(Nc4ccc(C)cc4N)n23)cc1O | – | – | – | – | – | – | – | – | – | – |
| 34.7 | 19.3 | 27.5 | 17.1 | 22.5 | – | Clc1nc2ccccc2c2nnc(/N=C/c3ccccc3)n12 | – | – | – | – | – | – | – | – | – | – |
| 35.1 | 27.2 | 41.7 | 24.4 | 44.9 | – | CN1CCN(CC(=O)Nc2nnc3c4ccccc4nc(Sc4ccc(Br)cc4)n23)CC1 | – | – | – | – | – | – | – | – | – | – |
| 29.4 | 49.2 | 33.5 | 37.2 | 31 | – | COc1ccc(/C=N/c2nnc3c4ccccc4nc(Cl)n23)cc1O | – | – | – | – | – | – | – | – | – | – |
| 44.3 | 46.2 | 41.6 | 38.5 | 39.6 | – | c1ccc2c(c1)nc(Oc1ccc(NCCCN3CCOCC3)cc1)n1cnnc21 | – | – | – | – | – | – | – | – | – | – |
| 31.4 | 44.1 | 35.7 | 40.4 | 34.6 | – | O=[N+]([O-])c1cccc(/C=N/c2nnc3c4ccccc4nc(Nc4ccccc4)n23)c1 | – | – | – | – | – | – | – | – | – | – |
| 13.4 | 10.3 | 10.5 | 8.9 | 11.5 | 0.69 | Nc1nc(Nc2nnc3c4ccccc4nc(Sc4ccc(Br)cc4)n23)cs1 | 17.3 | 7.58 | 35.76 | 72.85 | 41.43 | 27.15 | 2.27 | Dose-dependent effect | 27.15 | 22.81 |

Continued, compound first:

| Compound | IC50 [1] [µM] | IC50 [2] [µM] | IC50 [3] [µM] | IC50 [4] [µM] | IC50 [5] [µM] | IC50 [11] [µM] | Activity [6] [%] | Activity [7] [%] | Activity [8] [%] | Activity [9] [%] | Activity [10] [%] | Activity [12] [%] | Activity [13] [%] | Activity [14] | Activity [15] [%] | Activity [16] [%] |
| --- | --- | --- | --- | --- | --- | --- | --- | --- | --- | --- | --- | --- | --- | --- | --- | --- |
| O=C(CN1CCOCC1)Nc1nnc2c3ccccc3nc(Sc3ccc(Br)cc3)n12 | 47.1 | 50.3 | 61.5 | 55.6 | – | – | – | – | – | – | – | – | – | – | – | – |
| Clc1nc2ccccc2c2nnc(/N=C/C=C/c3ccccc3)n12 | 9.16 | 11.6 | 16.4 | 8.34 | 12.9 | 7.56 | – | – | – | – | – | – | – | – | – | – |
| COc1cccc2c1C(=O)c1c(O)c3c(c(O)c1C2=O)C[C@@](O)(C(=O)CO)C[C@@H]3O[C@H]1C[C@H](N)[C@H](O)[C@H](C)O1 [DOXORUBICIN] | – | – | – | – | – | – | 19.81 | 9.28 | 32.16 | 67.84 | 48.57 | 32.16 | 3.07 | – | 32.16 | 22.91 |
| Fc1ccc(/C=N/c2nnc3c4ccccc4nc(Cl)n23)cc1 | 29.2 | 31.2 | 38.5 | 25.9 | 18.5 | – | – | – | – | – | – | – | – | – | – | – |
| CN1CCN(CCCNc2ccc(Oc3nc4ccccc4c4nncn34)cc2)CC1 | 12.5 | 16.5 | 14.3 | 15.3 | 17.2 | – | – | – | – | – | – | – | – | – | – | – |
| C(=N\c1nnc2c3ccccc3nc(Nc3ccccc3)n12)/c1ccco1 | 15.5 | 20.8 | 43.9 | 19.7 | 24.4 | – | – | – | – | – | – | – | – | – | – | – |
| CCN1CCN(CC(=O)Nc2nnc3c4ccccc4nc(Sc4ccc(Br)cc4)n23)CC1 | 15.4 | 11.6 | 10.7 | 12.5 | 15.2 | 3.91 | – | – | – | – | – | – | – | – | – | – |
| Nc1ccc(Oc2nc3ccccc3c3nncn23)cc1 | 25.7 | 26.2 | 26.7 | 20.5 | 27.6 | – | – | – | – | – | – | – | – | – | – | – |
| O=C1CSCC(=O)N1c1nnc2c3ccccc3nc(Sc3ccc(Br)cc3)n12 | 11.8 | 8.43 | 10.7 | 9.48 | 12 | 4.1 | – | – | – | – | – | – | – | – | – | – |
| C(=N\c1nnc2c3ccccc3nc(Nc3ccccc3)n12)/c1ccccc1 | 22.3 | 19.2 | 12.6 | 20.3 | 24.8 | – | – | – | – | – | – | – | – | – | – | – |
| Nc1cc([N+](=O)[O-])ccc1Nc1nc2ccccc2c2nnc(/N=C/C=C/c3ccccc3)n12 | 36.1 | 13.7 | 25.2 | 32.7 | 11.6 | – | – | – | – | – | – | – | – | – | – | – |
| Nc1nnc2c3ccccc3nc(Sc3ccc(Br)cc3)n12 | 45.2 | 44.9 | 59.5 | 57.3 | 63.5 | – | – | – | – | – | – | – | – | – | – | – |
| c1ccc(N2CCN(CCCNc3ccc(Oc4nc5ccccc5c5nncn45)cc3)CC2)cc1 | 23.4 | 24.2 | 51.5 | 30.5 | 32.5 | – | – | – | – | – | – | – | – | – | – | – |
| CCN1CCN(CCCNc2ccc(Oc3nc4ccccc4c4nncn34)cc2)CC1 | 14.3 | 11.5 | 10.6 | 12.9 | 13.8 | 9.51 | – | – | – | – | – | – | – | – | – | – |
| Cc1cccc(Nc2nc3ccccc3c3nnc(/N=C/c4ccc(F)cc4)n23)c1 | 26.5 | 24.2 | 30.5 | 18.2 | 20.4 | – | – | – | – | – | – | – | – | – | – | – |
| Clc1nc2ccccc2c2nnc(/N=C/c3ccco3)n12 | 18.9 | 15 | 21.7 | 9.73 | 14.8 | 0.74 | 4.22 | 2.92 | 46.72 | 91.44 | 23.09 | 8.56 | 1.42 | Dose-dependent effect | 8.56 | 30.19 |
| O=[N+]([O-])c1cccc(/C=N/c2nnc3c4ccccc4nc(Cl)n23)c1 | 73.4 | 55.5 | 60.2 | 48.2 | 49.2 | – | – | – | – | – | – | – | – | – | – | – |
| O=C(CCl)Nc1nnc2c3ccccc3nc(Sc3ccc(Br)cc3)n12 | 30.4 | 29.9 | 37.1 | 34.4 | 37.5 | – | – | – | – | – | – | – | – | – | – | – |
